Experimental data reported in patent US20110044938A1 (NYCOMED GMBH, priority 2006, published 2011).

What was measured:
[1] = tested on: subclones of RKO colon adenocarcinoma cells (RKOp27 or RKOp21) arrested by Ponasterone A; assay: Alamar Blue cell viability assay, cell cycle specific mode of action: cells arrested by ectopic p27Kip1 induced by Ponasterone A versus proliferating cells; type: cell-based; conditions: Homo sapiens, RKO p27 induced (arrested) cells, 10 μM Ponasterone A, 72 hours, value = class bound given in Table A, read-out: −logIC50 RKO p27 induced (arrested) (converted)
Outline: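 Viability of proliferating versus Ponasterone A (10 μM)-arrested RKOp27/RKOp21 cells after 72 h compound exposure at 37° C, in quadruplicate. Read-out is Alamar Blue fluorescence (544/590 nm) normalised to untreated cells = 100%; values as −log IC50.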

[2] = tested on: RKO (RKOp27) human colon adenocarcinoma cells; assay: Alamar Blue cell viability assay, anti-proliferative/cytotoxic activity on proliferating RKO subclones; type: cell-based; conditions: RKOp27, 72 h, RKO p27 uninduced (proliferating) cells, value = class bound given in Table A, read-out: −logIC50 RKO p27 uninduced (proliferating) (converted)
Outline: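 Alamar Blue fluorescence (ex 544, em 590 nm) after 72 h compound exposure at 37 °C, 5% CO2, normalised to untreated controls set at 100%. Cells were seeded at 5000 per well and dosed 24 h later with serial semi-logarithmic dilutions in 10% FCS DMEM, four replicates each. −log IC50 [mol/l] was derived from concentration-effect curves.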

IC50 [1]	SMILES	IC50 [2]
≥ 10000 nM	CC(CC(=O)Nc1sc2c(c1C#N)CCC(COC(=O)NC(C)c1cccnc1)C2)c1ccccc1 (stereo not shown) [Example 316, (1-Pyridin-3-yl-ethyl)-carbamic acid 3-cyano-2-(3-phenyl-butanoylamino)-4,5,6,7-tetrahydro-benzo[b] thiophen-6-ylmethyl ester]	≤ 501 nM
≥ 100000 nM	COc1cccc(CCC(=O)Nc2sc3c(c2C#N)CCC(COC(=O)N2CCCC2)C3)c1 (stereo not shown) [Example 246, Pyrrolidine-1-carboxylic acid 3-cyano-2-[3-(3-methoxy-phenyl)-propanoylamino]-4,5,6,7-tetrahydro-benzo[b]thiophen-6-ylmethyl ester]	≤ 501 nM
≥ 50100 nM	COc1cccc(C(C)CC(=O)Nc2sc3c(c2C#N)CCC(COC(=O)NCc2cccnc2)C3)c1 (stereo not shown) [Example 325, Pyridin-3-ylmethyl-carbamic acid 3-cyano-2-[3-(3-methoxy-phenyl)-butanoylamino]-4,5,6,7-tetrahydro-benzo[b]thiophen-6-ylmethyl ester]	501 to 2000 nM
≥ 100000 nM	N#Cc1c(NC(=O)/C=C/c2cccnc2)sc2c1CC[C@H](COC(=O)N1CCC[C@H](O)C1)C2 [Example 87c, (S)-3-Hydroxy-piperidine-1-carboxylic acid (S)-3-cyano-2-((E)-3-pyridin-3-yl-allanoylamino)-4,5,6,7-tetrahydro-benzo[b]thiophen-6-ylmethyl ester]	≤ 501 nM
≥ 100000 nM	CCOC(=O)OCC1CCc2c(sc(NC(=O)/C=C/c3cccnc3)c2C#N)C1 (stereo not shown) [Example 8, Carbonic acid 3-cyano-2-((E)-3-pyridin-3-yl-allanoylamino)-4,5,6,7-tetrahydro-benzo[b]thiophen-6-ylmethyl ester ethyl ester]	501 to 2000 nM
≥ 100000 nM	N#Cc1c(NC(=O)/C=C/c2cccnc2)sc2c1CCC(OC(=O)N1CCCC(O)C1)C2 (stereo not shown) [Example 113, 3-Hydroxy-piperidine-1-carboxylic acid 3-cyano-2-((E)-3-pyridin-3-yl-allanoylamino)-4,5,6,7-tetrahydro-benzo[b]thiophen-6-yl ester]	≤ 501 nM

Further lines, the compound ahead of its results:

SMILES	IC50 [1]	IC50 [2]
CCOc1ccccc1CCC(=O)Nc1sc2c(c1C#N)CCC(COC(=O)NCc1cncn1C)C2 (stereo not shown) [Example 177, (3-Methyl-3H-imidazol-4-ylmethyl)-carbamic acid 3-cyano-2-[3-(2-ethoxy-phenyl)-propanoylamino]-4,5,6,7-tetrahydro-benzo[b]thiophen-6-ylmethyl ester]	≥ 50100 nM	≤ 501 nM
CC(CC(=O)Nc1sc2c(c1C#N)CCC(COC(=O)NCCc1cccnc1)C2)c1ccccc1 (stereo not shown) [Example 307, (2-Pyridin-3-yl-ethyl)-carbamic acid 3-cyano-2-(3-phenyl-butanoylamino)-4,5,6,7-tetrahydro-benzo[b]thiophen-6-ylmethyl ester]	≥ 50100 nM	≤ 501 nM
CCOc1ccccc1CCC(=O)Nc1sc2c(c1C#N)CCC(COC(=O)NCc1ccnn1C)C2 (stereo not shown) [Example 180, (2-Methyl-2H-pyrazol-3-ylmethyl)-carbamic acid 3-cyano-2-[3-(2-ethoxy-phenyl)-propanoylamino]-4,5,6,7-tetrahydro-benzo[b]thiophen-6-ylmethyl ester]	≥ 100000 nM	≤ 501 nM
CCOc1ccccc1CCC(=O)Nc1sc2c(c1C#N)CCC(COC(=O)NCCc1cccnc1)C2 (stereo not shown) [Example 176, (2-Pyridin-3-yl-ethyl)-carbamic acid 3-cyano-2-[3-(2-ethoxy-phenyl)-propanoylamino]-4,5,6,7-tetrahydro-benzo[b]thiophen-6-ylmethyl ester]	≥ 100000 nM	≤ 501 nM
Cc1cc(CNC(=O)OCC2CCc3c(sc(NC(=O)CC(C)c4ccccc4)c3C#N)C2)no1 (stereo not shown) [Example 314, (5-Methyl-isoxazol-3-ylmethyl)-carbamic acid 3-cyano-2-(3-phenyl-butanoylamino)-4,5,6,7-tetrahydro-benzo[b] thiophen-6-ylmethyl ester]	≥ 50100 nM	≤ 501 nM
